Test results published in publication PMC7559897, “Designed Antimicrobial Peptides Against Trauma-Related Cutaneous Invasive Fungal Wound Infections” (Journal of Fungi, 2020).
In brackets after ≈: the same amount, converted by molar mass. Square brackets hold non-standard residues; d marks the D form. Peptide text beside a SMILES is read from it. Orn = NCCC[C@H](N)C(=O)O

How the values were obtained:
MRSA 6313 = format: cell-based, Staphylococcus aureus; details: 6313, 24 h
Method: (§1) Assays were performed by Trideum Biosciences (Frederick, MD, USA). Isolates were thawed from −80 °C storage and sub-cultured on trypticase soy agar plates at 37 °C prior to experimentation. A single colony was aseptically picked from the agar plate and released in 30 mL trypticase soy broth and incubated overnight at 37 °C incubator. Following which the bacterial culture was diluted to approximately 10^6 colony forming units (CFU)/mL using 2X cation adjusted Mueller–Hinton broth and added to the dAMP solutions (0, 2, 4, 8, 16, 32, 64, and 128 μg/mL) which had been formulated in water at 256 μg/mL and then serially diluted in media on 96-well pates. For fungal evaluation, potato dextrose broth and potato dextrose agar plates were used. The treated cultures were then incubated for 24 h at 37 °C and pathogen growth was measured by absorbance at 600 nm. Four replicas were included for each dAMP concentration. Each MIC was assigned to the lowest test agent concentration resulting in at least three out of four wells showing no growth based on an optical density (OD) reading of <0.1.

S. aureus 6061 = format: cell-based, Staphylococcus aureus; details: 6061, 24 h
Method: as §1

MRSA ATCC 33592 = format: cell-based, Staphylococcus aureus; details: ATCC 33592, 24 h
Method: as §1

MRSA 6381 = format: cell-based, Staphylococcus aureus; details: 6381, 24 h
Method: as §1

S. aureus B-767 = format: cell-based, Staphylococcus aureus; details: B-767, 24 h
Method: as §1

K. pneumonia 6069 = format: cell-based, Klebsiella pneumoniae; details: 24 h
Method: as §1

K. pneumonia ATCC 10031 = format: cell-based, Klebsiella pneumoniae; details: ATCC 10031, 24 h
Method: as §1

[1] = system: Aspergillus fumigatus 9648; format: cell-based; details: 9648, 24 h
Method: as §1

Candida albicans Y-6359 = format: cell-based; details: Y-6359, 24 h
Method: as §1

Candida krusei Y-27825 = format: cell-based; details: Y-27825, 24 h
Method: as §1

[2] = system: Absidia corymbifera NRRL 6251; format: cell-based; details: NRRL 6251, 24 h
Method: as §1

[3] = system: Candida parapsilosis Y-1761; format: cell-based; details: Y-1761, 24 h
Method: as §1

[4] = system: Aspergillus fumigatus 9651; format: cell-based; details: 9651, 24 h
Method: as §1

E. cloacae 6054 = format: cell-based; details: 6054, 24 h
Method: as §1

[5] = system: Aspergillus flavus MYA-1004; format: cell-based; details: 24 h
Method: as §1

E. cloacae 6053 = format: cell-based; details: 6053, 24 h
Method: as §1

S. epidermis ATCC 51625 = format: cell-based; details: ATCC 51625, 24 h
Method: as §1

[6] = system: Aspergillus flavus MYA-3651; format: cell-based; details: 24 h
Method: as §1

Candida krusei Y-27803 = format: cell-based; details: Y-27803, 24 h
Method: as §1

[7] = system: Fusarium solani NRRL 28548; format: cell-based; details: NRRL 28548, 24 h
Method: as §1

[8] = system: Candida parapsilosis Y-1763; format: cell-based; details: Y-1763, 24 h
Method: as §1

Candida albicans Y-326 = format: cell-based; details: Y-326, 24 h
Method: as §1

[9] = system: Mucor circinelloides NRRL 3631; format: cell-based; details: NRRL 3631, 24 h
Method: as §1

[10] = system: vulvovaginal candidiasis infection; details: rodent vulvovaginal candidiasis, after three days of daily treatment; cited from earlier work
Source text: The dAMPs RP504, RP554 and RP557 were thus tested for their ability to treat a rodent vulvovaginal candidiasis infection. […] A daily dose with a 2% concentration lowered the CFU/sample by more than 4 logs compared to the con ...

P. aeruginosa 6186 = format: cell-based, Pseudomonas aeruginosa; details: 6186, 24 h
Method: as §1

P. aeruginosa ATCC 19660 = format: cell-based, Pseudomonas aeruginosa; details: ATCC 19660, 24 h
Method: as §1

P. aeruginosa ATCC 27853 = format: cell-based, Pseudomonas aeruginosa; details: ATCC 27853, 24 h
Method: as §1

A. baumannii 6838 = format: cell-based, Acinetobacter baumannii; details: 6838, 24 h
Method: as §1

A. baumannii ATCC 17978 = format: cell-based, Acinetobacter baumannii; details: ATCC 17978, 24 h
Method: as §1

A. baumannii 6043 = format: cell-based, Acinetobacter baumannii; details: 6043, 24 h
Method: as §1

[11] = system: S. aureus 49525 (Xen36 luciferase); format: cell-based, Staphylococcus aureus; details: 8 μg/mL, 60 min incubation, bioluminescence, triplicates from two independent experiments
Source text: (§2) Fungal and bacterial strains were obtained from American Type Culture Collection (ATCC, Manassas, VA, USA) or the clinical isolate collection at Trideum Biosciences (Frederick, MD, USA) and are presented in Table 1 and Table 2, respectively. Bioluminescence strains of P. aeruginosa 19660, transfected with the Xen5 luciferase gene, and S. aureus ATCC R 49525TM (Wright), transfected with the Xen36 luciferase gene, were obtained from Perkin Elmer (Waltham, MA, USA).
(§3) Real-time killing of bacterial cells, P. aeruginosa or S. aureus, and mammalian cytotoxicity to assess dAMP off-target toxicity was evaluated using bioluminescent cells. The L929 fibroblast cells (ATCC, Manassas, VA, USA) were made bioluminescent by transfection with a luciferase gene. Cells (1 × 10^4 cells, 100 μL) were plated in 96-well black-walled plates and the candidate dAMPs were 2-fold serially diluted from specified concentrations in growth medium supplemented with 150 μg/mL D-luciferin. Each concentration was performed in triplicate, with the final volume being 200 μL. Imaging was performed at select times after the addition of the dAMP, and compared to concurrently run vehicle-control, using an IVIS Lumina imaging system (Caliper Life Sciences, Inc., Hopkinton, MA, USA). For imaging, the 96-well plate was positioned on the stage (12.5-cm field of view), with an open emission filter, binning of 4, and f-stop 1 and a 1-min exposure time. Monitoring bioluminescence allows assessment of the kinetics of cellular viability as there is a tight correlation between the bioluminescent signal and cell viability. Data analysis was performed using the Living Image software program (version 4.3, Caliper Life Sciences, Inc., Hopkinton, MA, USA).
(§4) Figure 3 RP553, RP556, RP557 rapidly destroy P. aeruginosa and S. aureus. The bioluminescence of viable P. aeruginosa 19,660 and S. aureus 49,525 cells was quantitated in real time with an IVIS Lumina bioimaging system. Data represent the mean ± SE of triplicate replicates from two independent experiments. For some points, the error bars are shorter than the height of the symbols.

[12] = system: P. aeruginosa 19660 (Xen5 luciferase); assay: Bioluminescent time-kill assay; format: cell-based, Pseudomonas aeruginosa; details: 8 μg/mL; RP553 at 60 min; bioluminescence
Source text: as §2, §3, §4

Row | SMILES | MIC against MRSA 6313 (MRSA 6313) [µg/mL] | MIC against S. aureus 6061 (S. aureus 6061) [µg/mL] | MIC against MRSA ATCC 33592 (MRSA ATCC 33592) [µg/mL] | MIC against MRSA 6381 (MRSA 6381) [µg/mL] | MIC against S. aureus B-767 (S. aureus B-767) [µg/mL] | MIC against K. pneumonia 6069 (K. pneumonia 6069) [µg/mL] | MIC against K. pneumonia ATCC 10031 (K. pneumonia ATCC 10031) [µg/mL] | MIC against Aspergillus fumigatus 9648 [1] [µg/mL] | MIC against Candida albicans Y-6359 (Candida albicans Y-6359) [µg/mL] | MIC against Candida krusei Y-27825 (Candida krusei Y-27825) [µg/mL] | MIC against Absidia corymbifera NRRL 6251 [2] [µg/mL] | MIC against Candida parapsilosis Y-1761 [3] [µg/mL] | MIC against Aspergillus fumigatus 9651 [4] [µg/mL] | MIC against E. cloacae 6054 (E. cloacae 6054) [µg/mL] | MIC against Aspergillus flavus MYA-1004 [5] [µg/mL] | MIC against E. cloacae 6053 (E. cloacae 6053) [µg/mL] | MIC against S. epidermis ATCC 51625 (S. epidermis ATCC 51625) [µg/mL] | MIC against Aspergillus flavus MYA-3651 [6] [µg/mL] | MIC against Candida krusei Y-27803 (Candida krusei Y-27803) [µg/mL] | MIC against Fusarium solani NRRL 28548 [7] [µg/mL] | also measured
1 | CC[C@H](C)[C@H](NC(=O)[C@H](CCCN)NC(=O)[C@H](C)NC(=O)[C@H](CCCN)NC(=O)[C@H](CC(C)C)NC(=O)[C@H](CCCN)NC(=O)[C@@H](NC(=O)[C@H](CCCN)NC(=O)[C@@H](NC(=O)[C@H](CCCN)NC(=O)[C@H](C)NC(=O)[C@H](CCCN)NC(=O)[C@H](CC(C)C)NC(=O)[C@H](CCCN)NC(=O)[C@@H](N)Cc1ccccc1)[C@@H](C)CC)C(C)C)C(=O)N[C@@H](CCCN)C(=O)N[C@@H](CC(C)C)C(N)=O [RP554] (H-F[Orn]L[Orn]A[Orn]I[Orn]V[Orn]L[Orn]A[Orn]I[Orn]L-NH2) | 32 (≈ 17 µM) | 32 (≈ 17 µM) | 32 (≈ 17 µM) | 32 (≈ 17 µM) | 4 (≈ 2.12 µM) | 16 (≈ 8.49 µM) | 8 (≈ 4.25 µM) | 64 (≈ 34 µM) | 32 (≈ 17 µM) | 16 (≈ 8.49 µM) | 4 (≈ 2.12 µM) | 16 (≈ 8.49 µM) | 32 (≈ 17 µM) | 2 (≈ 1.06 µM) | 64 (≈ 34 µM) | 4 (≈ 2.12 µM) | 2 (≈ 1.06 µM) | 32 (≈ 17 µM) | 16 (≈ 8.49 µM) | 2 (≈ 1.06 µM) | MIC against Candida parapsilosis Y-1763 [8]: 8 µg/mL (≈ 4.25 µM); MIC against Candida albicans Y-326 (Candida albicans Y-326): 32 µg/mL (≈ 17 µM); MIC against Mucor circinelloides NRRL 3631 [9]: 32 µg/mL (≈ 17 µM); reduction of CFU/tissue sample [10]: ≥ 2.5 logs; MIC against P. aeruginosa 6186 (P. aeruginosa 6186): 8 µg/mL (≈ 4.25 µM); MIC against P. aeruginosa ATCC 19660 (P. aeruginosa ATCC 19660): 8 µg/mL (≈ 4.25 µM); MIC against P. aeruginosa ATCC 27853 (P. aeruginosa ATCC 27853): 4 µg/mL (≈ 2.12 µM); MIC against A. baumannii 6838 (A. baumannii 6838): 4 µg/mL (≈ 2.12 µM); MIC against A. baumannii ATCC 17978 (A. baumannii ATCC 17978): 4 µg/mL (≈ 2.12 µM); MIC against A. baumannii 6043 (A. baumannii 6043): 8 µg/mL (≈ 4.25 µM)
2 | CC[C@H](C)[C@H](NC(=O)[C@H](CCCCN)NC(=O)[C@H](CC(C)C)NC(=O)[C@H](CCCN)NC(=O)[C@H](CC(C)C)NC(=O)[C@H](CCCNC(=N)N)NC(=O)[C@H](C)NC(=O)[C@H](CCCNC(=N)N)NC(=O)[C@@H](NC(=O)[C@H](CCCN)NC(=O)[C@H](Cc1ccccc1)NC(=O)[C@H](CCCNC(=N)N)NC(=O)[C@H](C)NC(=O)[C@H](CCCCN)NC(=O)[C@@H](NC(=O)[C@H](CCCN)NC(=O)[C@@H](N)Cc1ccccc1)[C@@H](C)CC)C(C)C)C(N)=O [RP553] (H-F[Orn]IKARF[Orn]VRARL[Orn]LKI-NH2) | 4 (≈ 1.93 µM) | 8 (≈ 3.86 µM) | 4 (≈ 1.93 µM) | 8 (≈ 3.86 µM) | 4 (≈ 1.93 µM) | 4 (≈ 1.93 µM) | 4 (≈ 1.93 µM) | 128 (≈ 61.8 µM) | 64 (≈ 30.9 µM) | 32 (≈ 15.4 µM) | 2 (≈ 0.965 µM) | 64 (≈ 30.9 µM) | 64 (≈ 30.9 µM) | 2 (≈ 0.965 µM) | 128 (≈ 61.8 µM) | 4 (≈ 1.93 µM) | 2 (≈ 0.965 µM) | 128 (≈ 61.8 µM) | 32 (≈ 15.4 µM) | 2 (≈ 0.965 µM) | S. aureus killing [11]: 14%; MIC against Candida parapsilosis Y-1763 [8]: 32 µg/mL (≈ 15.4 µM); MIC against Candida albicans Y-326 (Candida albicans Y-326): 64 µg/mL (≈ 30.9 µM); MIC against Mucor circinelloides NRRL 3631 [9]: 64 µg/mL (≈ 30.9 µM); P. aeruginosa killing (in words) [12]: nearly all; MIC against P. aeruginosa 6186 (P. aeruginosa 6186): 8 µg/mL (≈ 3.86 µM); MIC against P. aeruginosa ATCC 19660 (P. aeruginosa ATCC 19660): 8 µg/mL (≈ 3.86 µM); MIC against P. aeruginosa ATCC 27853 (P. aeruginosa ATCC 27853): 4 µg/mL (≈ 1.93 µM); MIC against A. baumannii 6838 (A. baumannii 6838): 8 µg/mL (≈ 3.86 µM); MIC against A. baumannii ATCC 17978 (A. baumannii ATCC 17978): 4 µg/mL (≈ 1.93 µM); MIC against A. baumannii 6043 (A. baumannii 6043): 16 µg/mL (≈ 7.72 µM)
